According to patent publication US20120190620A1, “METHODS TO IDENTIFY TARGETS AND MOLECULES REGULATING PURINOSOMES AND THEIR USES” (priority 2010, published 2012):

Key:
Format in all cases: cell-based, human
HeLa cells [1] = assay: Purinosome dynamics DMR screen, sequential order molecule, DMAT, TBB; conditions: for modulation of the DMAT DMR signal / modulation of the TBB DMR signal: GPCR/RTK agonist library, pretreated about one hour, order agonist, DMAT (20 micromolar), TBB (25 micromolar), FIG. 3; for modulation of the DMAT signal / modulation of the TBB signal: adrenergic receptor ligand library, order ligand, TBB, FIG. 5, DMAT
From the text: A library of agonists for various different GPCRs were used to individually pretreat a confluent layer of Hela cells for about one hour, before sequential stimulation with DMAT and TBB, respectively. The responses were monitored using Epic® system.
A library of molecules targeting endogenous alpha2A and beta2 adrenergic receptors were used to individually pretreat a confluent layer of Hela cells for about one hour, before sequential stimulation with DMAT and TBB, respectively. The responses were monitored using Epic® system.
(§1) Epic® wavelength interrogation system (Corning Inc., Corning, N.Y.) was used for whole cell sensing. This system consists of a temperature-control unit, an optical detection unit, and an on-board liquid handling unit with robotics. The detection unit is centered on integrated fiber optics, and enables kinetic measures of cellular responses with a time interval of ˜15 sec. The compound solutions were introduced by using the on-board liquid handling unit (i.e., pippetting).
(§2) For biosensor cellular assays, compound solutions were made by diluting the stored concentrated solutions with the HBSS (1× Hanks balanced salt solution, plus 20 mM Hepes, pH 7.1), and transferred into a 384 well polypropylene compound storage plate to prepare a compound source plate. Two compound source plates were made separately when a two-step assay was performed. In parallel, the cells were washed twice with the HBSS and maintained in 30 μl of the HBSS to prepare a cell assay plate. Both the cell assay plate and the compound source plate(s) were then incubated in the hotel of the reader system. After incubation the baseline wavelengths of all biosensors in the cell assay microplate were recorded and normalized to zero. Afterwards, a 2 to 10 min continuous recording was carried out to establish a baseline, and to ensure that the cells reached a steady state. Cellular responses were then triggered by transferring 10 μl of the compound solutions into the cell assay plate using the on-board liquid handler.
(§3) All studies were carried out at a controlled temperature (28° C.). At least two independent sets of experiments, each with at least three replicates, were performed.
(§4) The upstream signaling pathways linking to the purinosome is unknown at the present time. To identify cellular targets and pathways that are involved in regulating purinosome dynamics, a library of agonists for a great number of G protein-coupled receptors and membrane bound receptor tyrosine kinases was made in house, and each agonist was used to stimulate a confluent layer of Hela cells, cultured using high initial seeding number (25k per well for 384 well Epic® cell culture compatible biosensor microplates) in purine rich medium (i.e., regular 10% FCS or FBS). The concentrations for all small organic molecules were 10 micromolar, whereas 1 micromolar for all small peptides, and 100 nanomolar for all protein factors (molecular weight >15k Da). The cellular responses to each agonist were recorded for about 1 hour, and used to determine the functional expression of their corresponding cognate receptor(s).
To examine the receptor whose signaling is involved in regulating the purinosome dynamics, Hela cells were pretreated individually with each agonist for about one hour, followed by sequential stimulation with DMAT (20 micromolar) and TBB (25 micromolar), each step about 1 hour.

HeLa cells [2] = assay: Purinosome dynamics DMR screen, sequential order molecule, TBB, DMAT; conditions: agonist library; order agonist, TBB, DMAT; FIG. 4
From the text: A library of agonists for various different GPCRs were used to individually pretreat a confluent layer of Hela cells for about one hour, before sequential stimulation with TBB and DMAT, respectively. The responses were monitored using Epic® system.
(A) The dose-dependent DMR signals of Hela cells induced by alpha2A agonist clonidine. (B) The TBB DMR signal of Hela cells after pretreated with clonidine at different doses. (C) The dose-dependent DMR signals of pertussis toxin (PTX)-pretreated Hela cells induced by alpha2A agonist clonidine. (D) The TBB DMR signal of the PTX-pretreated Hela cells after stimulated with clonidine at different doses. The TBB concentration was 20 μM in both (C) and (D). The clonidine pretreatment occurred about one-hour before the TBB stimulation.
as §1, §2, §3, §4

HeLa cells [3] = assay: Epic label-free biosensor DMR assay of compound-induced signals in HeLa cells; conditions: for effect of pretreatment on the sequential DMAT response / effect of pretreatment on the sequential TBB response: HeLa cells pretreated with the compound about 1 hr; for effect of pretreatment on the sequential DMAT response: then DMAT; for effect of pretreatment on the sequential TBB response: then TBB; for DMR signal induced by CK2 inhibitor: HeLa cells, regular serum medium, high initial seeding number
From the text: HeLa cells were obtained from American Type Cell Culture (Manassas, Va.). This cervical cancer cell line was maintained in regular serum medium (i.e., minimum essential medium (MEM) (Invitrogen) supplemented with 10% fetal bovine serum (FBS) and 1% Penicillin/streptomycin). To investigate the effects of purine depletion on the purinosome formation and dissociation, HeLa cells were maintained for at least two passages in “purine-depleted medium” prior cell assays. The purine depleted medium is a medium consisting of Roswell Park Memorial Institute 1640 (RPMI 1640) supplemented with dialyzed 5% FBS […]. FBS was dialyzed against 0.9% NaCl at 4° C. for ˜2 days using a 25 kDa MWCO dialysis membrane to remove purines. This process completely removes the purines normally present in FBS.
Cells were typically grown using ˜1 to 2×10^4 cells per well at passage 3 to 15 suspended in 50 μl of the corresponding culture medium in the biosensor microplate, and were cultured at 37° C. under air/5% CO2 for ˜1 day. The confluency for all cells at the time of assays was ˜100%.
as §1
The RWG biosensor is capable of detecting minute changes in local index of refraction near the sensor surface. Since the local index of refraction within a cell is a function of density and its distribution of biomass (e.g., proteins, molecular complexes), the biosensor exploits its evanescent wave to non-invasively detect ligand-induced dynamic mass redistribution in native cells. The evanescent wave extends into the cells and exponentially decays over distance, leading to a characteristic sensing volume of ˜150 nm, implying that any optical response mediated through the receptor activation only represents an average over the portion of the cell that the evanescent wave is sampling. The aggregation of many cellular events downstream the receptor activation determines the kinetics and amplitudes of a ligand-induced DMR.
as §2, §3

Molecule	modulation of the DMAT signal (HeLa cells [1])	modulation of the TBB signal (HeLa cells [1])	further results
CS(=O)(=O)Nc1c(O)ccc2c1CCCC2C1=NCCN1 (stereo not drawn) [A61603]	suppress	potentiate	modulation of the DMAT DMR signal (HeLa cells [1]): suppress; modulation of the TBB DMR signal (HeLa cells [1]): potentiate; modulation of the TBB DMR signal (HeLa cells [2]): selectively potentiate
N=C(CC(O)COc1ccccc1-c1ccccc1)N1CCCCC1 (stereo not drawn) [AH11110A]	potentiate	suppress	–
Nc1ncnc2c1ncn2[C@@H]1O[C@H](COP(=O)(O)OP(=O)(O)OP(=O)(O)O)[C@@H](O)[C@H]1O [ATP]	–	–	modulation of the DMAT DMR signal (HeLa cells [1]): selectively suppress; modulation of the TBB DMR signal (HeLa cells [2]): selectively potentiate
OC[C@H]1O[C@@H](n2cnc3cc(Cl)c(Cl)cc32)[C@H](O)[C@@H]1O [DRB, 5,6-Dichlorobenzimidazole 1-β-D-ribofuranoside]	–	–	effect of pretreatment on the sequential DMAT response (HeLa cells [3]): desensitized; effect of pretreatment on the sequential TBB response (HeLa cells [3]): slightly potentiated; DMR signal induced by CK2 inhibitor (HeLa cells [3]): DMR signals similar to the DMAT response
O=C(O)c1cc([N+](=O)[O-])ccc1NCCCc1ccccc1 [NPPB]	–	–	modulation of the DMAT DMR signal (HeLa cells [1]): potentiate; modulation of the TBB DMR signal (HeLa cells [1]): no or little impact
CCCCC[C@H](O)/C=C/[C@H]1C(=O)C[C@H](O)[C@@H]1C/C=C\CCCC(=O)O [PGD2, prostaglandin D2]	–	–	modulation of the DMAT DMR signal (HeLa cells [1]): potentiate; modulation of the TBB DMR signal (HeLa cells [1]): no or little impact; modulation of the TBB DMR signal (HeLa cells [2]): selectively suppress
CCCCC[C@H](O)/C=C/[C@H]1[C@H](O)CC(=O)[C@@H]1C/C=C\CCCC(=O)O [PGE2, peostaglandin E2]	–	–	modulation of the DMAT DMR signal (HeLa cells [1]): potentiate; modulation of the TBB DMR signal (HeLa cells [1]): no or little impact; modulation of the TBB DMR signal (HeLa cells [2]): selectively suppress
CC(C)(Cc1c[nH]c2ccc(Cl)cc12)NCCOc1ccccc1OCC1CC1 [RS17053]	potentiate	suppress	–
Brc1c(Br)c(Br)c2[nH]cnc2c1Br [TBBz, 4,5,6,7-tetrabromobenzimidazole]	–	–	type of CK2 inhibitor by label-free biosensor cellular assay (HeLa cells [3]): purinosome disruption agent
O=C(O)/C=C/c1cc(Br)c(Br)c(Br)c1Br [TBCA, Tetrabromocinnamic Acid]	–	–	type of CK2 inhibitor by label-free biosensor cellular assay (HeLa cells [3]): purinosome promoting agent; effect of pretreatment on the sequential DMAT response (HeLa cells [3]): desensitized; effect of pretreatment on the sequential TBB response (HeLa cells [3]): slightly potentiated; DMR signal induced by CK2 inhibitor (HeLa cells [3]): DMR signals similar to the DMAT response
Brc1c(NC2=NCCN2)ccc2nccnc12 [UK14304]	suppress	potentiate	–
Clc1ccc2c(c1)C(N1CCNCC1)=Nc1ccccc1O2 [amoxapine]	potentiate	suppress	–
O=c1cc(-c2ccc(O)cc2)oc2cc(O)cc(O)c12 [apigenin]	–	–	DMR signal induced by CK2 inhibitor (HeLa cells [3]): DMR signals similar to the DMAT response
c1ccc2c(c1)[I+]c1ccccc1-2 [diphylpheneiodonium]	potentiate	suppress	–
CC(CCc1ccc(O)cc1)NCCc1ccc(O)c(O)c1 (stereo not drawn) [dobutamine]	specifically suppress	–	–
N=C(N)N/N=C/c1c(Cl)cccc1Cl [guanabenz]	suppress	potentiate	–
N=C(N)NC(=O)Cc1c(Cl)cccc1Cl [gufacine]	suppress	potentiate	–
CC(C(O)c1ccc(O)cc1)N1CCC(Cc2ccccc2)CC1 (stereo not drawn) [ifenprodil]	potentiate	suppress	–
CCC(NC(C)C)C(O)c1ccc(O)c(O)c1 (stereo not drawn) [isoetharine]	specifically suppress	–	–
CC(C)NCC(O)c1ccc(O)c(O)c1 (stereo not drawn) [isoproterenol]	specifically suppress	–	–
CNCCCC12CCC(c3ccccc31)c1ccccc12 [maprotiline]	potentiate	suppress	–
CC(N)C(O)c1ccc(O)c(O)c1 (stereo not drawn) [methylnorephrine]	suppress	potentiate	–
c1ccc2c(CC3=NCCN3)cccc2c1 [naphazoline]	suppress	potentiate	–
NC[C@H](O)c1ccc(O)c(O)c1 [norepinephrine]	suppress	potentiate	–
C1COC(NC(C2CC2)C2CC2)=N1 [rilmenidine]	suppress	potentiate	–
Clc1ccc2nsnc2c1NC1=NCCN1 [tizanidine]	suppress	potentiate	–
Cc1cccc(C)c1N=C1NCCCS1 [xylazine]	suppress	potentiate	–
EGF: epidermal growth factor, the EGFR agonist (NSDSECPLSHDGYCLHDGVCMYIEALDKYACNCVVGYIGERCQYRDLKWWELR; not fully specified; Epidermal growth factor; UniProt P01133 971-1023, looked up)	–	–	modulation of the DMAT DMR signal (HeLa cells [2]): selectively suppress
HGF: hepatocyte growth factor, the HGFR agonist	–	–	modulation of the TBB DMR signal (HeLa cells [2]): selectively potentiate
IGF1: insulin-like growth factor 1, the IGF1R agonist	–	–	modulation of the TBB DMR signal (HeLa cells [2]): selectively potentiate
